Laboratory results: patent US10273226B2, “Pyrazolyl-heteroarylamides as pesticides” (Bayer Animal Health GmbH, priority 2014, dated 2019)

Tests used:
Assay type in all cases: in vivo
[1] = system: Tetranychus urticae; experiment: Tetranychus urticae spray test, OP-resistant; settings: after 6 days
In short: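 Bean leaf discs (Phaseolus vulgaris) carrying all stages of OP-resistant mites are sprayed with compound formulated in solvent and emulsifier-containing water. Efficacy (% mites killed) is scored after 6 days.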

[2] = system: Lucilia cuprina; experiment: Lucilia cuprina test; settings: application rate 100 ppm; L1 larvae; after 2 days
In short: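 About 20 L1 larvae placed in vessels with minced horsemeat treated with compound (DMSO concentrate diluted in water) at the desired concentration. Kill (%) scored after 2 days; 100% means all larvae dead, 0% none.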

[3] = system: Myzus persicae; experiment: Myzus persicae spray test; settings: after 6 days
Method: Myzus persicae—Spray Test
To produce an appropriate active ingredient formulation, 1 part by weight of active ingredient is dissolved using the specified parts by weight of solvent and made up with water containing an emulsifier concentration of 1000 ppm until the desired concentration is attained. To produce further test concentrations, the preparation is diluted with emulsifier-containing water.
Discs of Chinese cabbage leaves (Brassica pekinensis) infested by all stages of the green peach aphid (Myzus persicae) are sprayed with an active ingredient formulation of the desired concentration.
After 6 days, efficacy in % is determined. 100% means that all the aphids have been killed; 0% means that none of the aphids have been killed.

[4] = system: Rhipicephalus sanguineus; experiment: Rhipicephalus sanguineus in vitro contact test with adult brown dog ticks; settings: after 48 h, ticks dead or moribund
In short: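 Test tubes (25 ml) were coated by dissolving active ingredient in acetone p.a., diluting to the required concentration, and spreading 250 μl over the inner walls and base on an orbital shaker at 30 rpm for 2 h. Once dry, 5-10 adult Rhipicephalus sanguineus were added, and tubes were capped with perforated lids and kept horizontal in darkness at room temperature. At 48 h, ticks were knocked down and heated at 45-50° C. for up to 5 min. Those unable to climb away were counted dead or moribund, and efficacy ran from 0% to 100%.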

[5] = system: Spodoptera frugiperda; experiment: Spodoptera frugiperda spray test; settings: caterpillars, after 7 days
In short: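 Maize leaf discs were sprayed with compound formulated in solvent plus water containing 1000 ppm emulsifier, dried, then infested with Spodoptera frugiperda caterpillars. Efficacy in % mortality was scored after 7 days (100% all killed, 0% none).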

[6] = system: Phaedon cochleariae; experiment: Phaedon cochleariae spray test; settings: larvae, after 7 days
In short: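 Chinese cabbage leaf discs were sprayed with the compound formulated in water containing 1000 ppm emulsifier. After drying, they were infested with mustard beetle larvae. Efficacy was scored as % larvae killed after 7 days (100% = all dead, 0% = none).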

[7] = system: Ctenocephalides felis; experiment: Ctenocephalides felis oral test; settings: application rate 100 ppm in citrated cattle blood; after 2 days
In short: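 Compound dissolved in DMSO (10 mg in 0.5 ml stock) and diluted with citrated cattle blood to test concentration. About 20 unfed adult fleas fed on the treated blood through a parafilm membrane. Kill (%) scored after 2 days; 100% = all fleas dead.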

[8] = system: Boophilus microplus; experiment: Boophilus microplus injection test; settings: application rate 20 μg/animal; injection into abdomen; assessed after 7 days
In short: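 DMSO formulation, 1 μl intra-abdominal injection, n=5 engorged adult females; climate-controlled room; score fertile eggs d7, unclear eggs held until larval hatch (~42 d); % efficacy, 100% = no fertile eggs.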

[9] = system: Ctenocephalides felis; experiment: Ctenocephalides felis in vitro contact test with adult cat fleas; settings: after 48 h, fleas dead or moribund
Method: Ctenocephalides felis—In Vitro Contact Tests with Adult Cat Fleas
For the coating of the test tubes, 9 mg of active ingredient are first dissolved in 1 ml of acetone p.a. and then diluted to the desired concentration with acetone p.a. 250 μl of the solution are distributed homogeneously on the inner walls and base of a 25 ml test tube by turning and rocking on an orbital shaker (rocking rotation at 30 rpm for 2 h). With 900 ppm active ingredient solution and internal surface 44.7 cm^2, given homogeneous distribution, an area-based dose of 5 μg/cm^2 is achieved.
After the solvent has evaporated off, the tubes are populated with 5-10 adult cat fleas (Ctenocephalides felis), sealed with a perforated plastic lid and incubated in a horizontal position at room temperature and ambient humidity. After 48 h, efficacy is determined. To this end, the test tubes are stood upright and the fleas are knocked to the base of the tube. Fleas which remain motionless at the base or move in an uncoordinated manner are considered to be dead or moribund.
100% efficacy means that all the fleas were dead or moribund. 0% efficacy means that no fleas were harmed.

[10] = system: Musca domestica; experiment: Musca domestica test; settings: application rate 100 ppm; adult houseflies; after 2 days
Method: Solvent: dimethyl sulphoxide
To produce an appropriate active ingredient formulation, 10 mg of active ingredient are mixed with 0.5 ml of dimethyl sulphoxide, and the concentrate is diluted with water to the desired concentration.
Vessels containing a sponge treated with sugar solution and the active ingredient formulation of the desired concentration are populated with 10 adult houseflies (Musca domestica).
After 2 days, the kill in % is determined. 100% means that all of the flies have been killed; 0% means that none of the flies have been killed.

[11] = application rate 5 μg/cm^2 (500 g/ha)
[12] = application rate 1 μg/cm^2 (100 g/ha)

Compound	efficacy ([1]; application rate 500 g/ha)	efficacy (kill in %) [2]	efficacy ([3]; application rate 100 g/ha)	efficacy [4, 11]	efficacy ([5]; application rate 500 g/ha)	efficacy ([6]; application rate 500 g/ha)	efficacy (kill in %) [7]	efficacy (laying of fertile eggs) [8]	efficacy ([1]; application rate 100 g/ha)	efficacy [9, 11]	efficacy ([5]; application rate 100 g/ha)	efficacy ([6]; application rate 100 g/ha)	efficacy (kill in %) [10]	efficacy [9, 12]	efficacy ([3]; application rate 500 g/ha)	efficacy [4, 12]	efficacy ([1]; application rate 20 g/ha)
Cn1nc(C(F)(F)C(F)(F)F)c(C(F)(F)F)c1-n1cc(-c2cccc(NC(=O)C(F)(F)C(F)F)c2)cn1 [Example 1-009]	100%	100%	100%	100%	100%	100%	100%	100%	–	–	–	–	–	–	–	–	–
Cn1nc(C(F)(F)C(F)(F)F)c(C(F)(F)F)c1-n1cc(-c2cccc(NC(=O)c3ccccc3F)c2)cn1 [Example 1-012]	–	100%	90%	100%	–	–	100%	100%	100%	100%	100%	100%	–	–	–	–	–
Cn1nc(C(F)(F)C(F)(F)F)c(C(F)(F)F)c1-n1cc(-c2cccc(NC(=O)c3cccc(F)c3)c2)cn1 [Example 1-013]	–	100%	–	100%	–	–	100%	100%	100%	100%	100%	100%	90%	–	–	–	–
Cn1nc(C(F)(F)C(F)(F)F)c(C(F)(F)F)c1-n1cc(-c2cccc(NC(=O)c3cc(F)cc(F)c3)c2)cn1 [Example 1-014]	–	100%	–	100%	–	–	100%	100%	90%	–	100%	100%	90%	80%	–	–	–
Cn1nc(C(F)(F)C(F)(F)F)c(C(F)(F)F)c1-n1cc(-c2cccc(NC(=O)c3ccsc3)c2)cn1 [Example 1-016]	100%	100%	–	100%	100%	100%	100%	100%	–	100%	–	–	–	–	90%	–	–
Cn1nc(C(F)(F)C(F)(F)F)c(C(F)(F)F)c1-n1cc(-c2cccc(NC(=O)c3cccs3)c2)cn1 [Example 1-017]	–	100%	90%	100%	–	–	100%	100%	100%	–	100%	100%	–	–	–	–	–
Cn1nc(C(F)(F)C(F)(F)F)c(C(F)(F)F)c1-n1cc(-c2cccc(NC(=O)c3cccnc3Cl)c2)cn1 [Example 1-028]	–	100%	–	100%	–	–	100%	100%	100%	100%	100%	100%	100%	–	–	–	–
Cn1nc(C(F)(F)C(F)(F)F)c(C(F)(F)F)c1-n1cc(-c2ccc(F)c(NC(=O)C(F)(F)C(F)F)c2)cn1 [Example 1-033]	–	100%	90%	–	–	–	100%	100%	100%	–	–	83%	–	–	–	100%	–
Cn1nc(C(F)(F)C(F)(F)F)c(C(F)(F)F)c1-n1cc(-c2ccc(F)c(NC(=O)c3ccncn3)c2)cn1 [Example 1-034]	–	100%	–	100%	–	–	100%	100%	100%	100%	100%	100%	100%	–	–	–	–
COCC(=O)Nc1cc(-c2cnn(-c3c(C(F)(F)F)c(C(F)(F)C(F)(F)F)nn3C)c2)ccc1F [Example 1-048]	–	95%	90%	100%	–	–	95%	100%	100%	–	–	–	–	–	–	–	–
Cn1nc(C(F)(F)C(F)(F)F)c(C(F)(F)F)c1-n1cc(-c2ccc(F)c(NC(=O)C3(C)CC3)c2)cn1 [Example 1-058]	–	100%	–	100%	–	–	100%	100%	100%	100%	83%	–	80%	–	–	–	–
Cn1nc(C(F)(F)C(F)(F)F)c(C(F)(F)F)c1-n1cc(-c2ccc(F)c(NC(=O)c3ccc(Cl)c(F)c3)c2)cn1 [Example 1-096]	–	100%	–	100%	–	–	100%	100%	100%	100%	100%	100%	90%	–	–	–	–
CN(C)C(=O)C(=O)Nc1cc(-c2cnn(-c3c(C(F)(F)F)c(C(F)(F)C(F)(F)F)nn3C)c2)ccc1F [Example 1-127]	–	100%	–	100%	–	–	100%	100%	–	100%	100%	100%	100%	–	–	–	–
Cc1ncc(-c2cnn(-c3c(C(F)(F)F)c(C(F)(F)C(F)(F)F)nn3C)c2)cc1NC(=O)c1ccc(F)cc1 [Example 2-003]	–	100%	–	100%	–	–	100%	100%	100%	–	100%	100%	100%	–	–	–	–
Cn1nc(C(F)(F)C(F)(F)F)c(C(F)(F)F)c1-n1cc(-c2cnc(F)c(NC(=O)c3ccncc3)c2)cn1 [Example 2-005]	–	100%	–	–	–	–	100%	100%	–	100%	100%	100%	90%	–	–	80%	100%
Cn1nc(C(F)(F)C(F)(F)F)c(C(F)(F)F)c1-n1cc(-c2cnc(Cl)c(NC(=O)c3ccncc3)c2)cn1 [Example 2-006]	–	100%	–	80%	–	–	100%	100%	100%	100%	100%	100%	90%	–	–	–	–
